# Earlier results, collected in US20050214353A1, “Transdermal therapeutic system” (priority 2001, published 2005).
smiles,measurement,value
"CCN(CC)C(=O)N[C@H]1C=C2c3cccc4[nH]cc(c34)C[C@H]2N(C)C1 [lisuride, 3-(9,10-didehydro-6-methyl-8α-ergolinyl)-1,1-diethyl urea]",half-life in the blood,ca. 2 hrs
